Assay [1] concerns NCIH460 (lung) cells. Description: Anti-cancer screen (MTT), NCIH460. It is filed as cell-based. To be noted: Homo sapiens, NCI-H460, NCIH460, 48 hours, MTT. Put shortly:
(§1)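 Cells in DMEM with 10% FBS were seeded for 24 h, then exposed for 48 h to compounds at 0.01, 0.1, 1, 10 and 100 μM final, in triplicate. Viability was read by MTT (3 h, A570 after DMSO solubilisation), referenced to a pre-dosing T0 plate, with SAHA as standard.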

For assay [2], the system named is U251 (glioma) cells. Description: Anti-cancer screen (MTT), U251. It is filed as cell-based. To be noted: Homo sapiens, U-251, U251, 48 hours, MTT. Put shortly:
as §1

Assay [3] relates to HDAC (Mouse Liver Extract). Description: HDAC inhibition assay using Boc-Lys(Ac)-AMC substrate. In kind it is biochemical. The settings on record: mouse liver enzyme. Put shortly: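 Boc-Lys(Ac)-AMC substrate incubated with mouse liver extract as HDAC source, 5 min preincubation then 30 min at 37° C. Trypsin stop solution added (37° C., 15-30 min) to release AMC, read at ex 360/em 460 nm; buffer-only and substrate-only wells as blanks.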

For `COc1ccc(/C=C(/C(=O)NCc2ccc(C(=O)Nc3ccccc3N)cc2)c2ccc(F)cc2)cc1OC` [Compound 19, N-(2-Aminophenyl)-4-((3-(3,4-dimethoxyphenyl)-2-(4-fluorophenyl)acrylamido)methyl)benzamide], the results for the GI50 in assay [1] (read-out: Cell growth inhibition NCIH460 (Lung) GI50) and in assay [2] (read-out: Cell growth inhibition U251 (Glioma) GI50) were 2.5 µM and 0.3 µM, respectively. Also, the LC50 in assay [1] (read-out: Cell growth inhibition NCIH460 (Lung) LC50) was 70 µM. The IC (TGI) in assay [1] (read-out: Cell growth inhibition NCIH460 (Lung) TGI) amounted to 8 µM; in assay [2] (read-out: Cell growth inhibition U251 (Glioma) TGI), 1.8 µM. The LC50 (concentration giving 50% net cell kill relative to the time-zero cell count) in assay [2] (read-out: Cell growth inhibition U251 (Glioma) LC50) worked out at 4.8 µM. Also, the “HDAC inhibition % (1 μM)” value in assay [3] (1 μM) stood at 29.7%. In addition, the “HDAC inhibition % (10 μM)” value in assay [3] (10 μM) was determined as 52.9%. The compound also returned an IC50 in assay [3] of 8.6 µM.

For orientation: GI50 means the concentration at which growth is held to half of that of the control. The term LC50 denotes the concentration that kills 50% of the test population. A word on the IC50: it is the midpoint of a concentration-inhibition curve. A high value points to weaker potency in that assay.

Source of the values: US8476255B2, “Histone deacetylase inhibitors” (Orchid Chemicals & Pharmaceuticals Limited, priority 2007, dated 2013).
